Laboratory results reported in ChEMBL document CHEMBL4819081 (Eur J Med Chem, 2021).

What was measured:
MDA-MB-453 = experiment: Antiproliferative activity against human MDA-MB-453 cells assessed as reduction in cell viability after 72 hrs by MTT assay; assay type: functional, cell-based; details: MDA-MB-453, 72 h
MCF7 = experiment: Antiproliferative activity against human MCF7 cells assessed as reduction in cell viability after 72 hrs by MTT assay; assay type: functional, cell-based; details: MCF7, 72 h
NCI-H1299 = experiment: Antiproliferative activity against human NCI-H1299 cells assessed as reduction in cell viability after 72 hrs by MTT assay; assay type: functional, cell-based; details: NCI-H1299, 72 h
MDA-MB-231 = experiment: Antiproliferative activity against human MDA-MB-231 cells assessed as reduction in cell viability after 72 hrs by MTT assay; assay type: functional, cell-based; details: MDA-MB-231, 72 h
[1] = molecular target: T1, CDK6/cyclin D3 (Homo sapiens) (UniProt P30281+Q00534); experiment: Inhibition of CDK6/Cyclin D3 (unknown origin) at 200 nM using ATP by mobility shift assay; assay type: protein-complex assay
[2] = molecular target: T2, Cyclin-dependent kinase 4/cyclin D1 (Homo sapiens) (UniProt P11802+P24385); experiment: Inhibition of CDK4/Cyclin D1 (unknown origin) at 20 nM using ATP by mobility shift assay; assay type: protein-complex assay
[3] = molecular target: T1, CDK6/cyclin D3 (Homo sapiens); experiment: Inhibition of CDK6/Cyclin D3 (unknown origin) at 20 nM using ATP by mobility shift assay; assay type: protein-complex assay
[4] = molecular target: T2, Cyclin-dependent kinase 4/cyclin D1 (Homo sapiens); experiment: Inhibition of CDK4/Cyclin D1 (unknown origin) at 200 nM using ATP by mobility shift assay; assay type: protein-complex assay

Row | Compound | IC50 (MDA-MB-453) [µM] | IC50 (MCF7) [µM] | IC50 (NCI-H1299) [µM] | IC50 (MDA-MB-231) [µM] | inhibition [1] [%] | inhibition [2] [%] | inhibition [3] [%] | inhibition [4] [%]
1 | CC(=O)c1c(C)c2cnc(Nc3ccc(N4CCN(CC(=O)NCCOCCNCC#N)CC4)cn3)nc2n(C2CCCC2)c1=O | > 20 | > 20 | > 20 | > 20 | – | – | – | –
2 | CC(=O)c1c(C)c2cnc(Nc3ccc(N4CCN(CCC(=O)NCCOCCNCC#N)CC4)cn3)nc2n(C2CCCC2)c1=O | > 20 | > 20 | > 20 | > 20 | – | – | – | –
3 | CC(=O)c1c(C)c2cnc(Nc3ccc(N4CCN(CC(=O)NCCCCCCNC(=O)CCl)CC4)cn3)nc2n(C2CCCC2)c1=O | 5.11 | 14.5 | 8.88 | 9.89 | 98.2 | 45.7 | 71.3 | 90.9
4 | CC(=O)c1c(C)c2cnc(Nc3ccc(N4CCN(CCC(=O)NCCOCCOCCNC(=O)CCl)CC4)cn3)nc2n(C2CCCC2)c1=O | 9.2 | 15.8 | > 20 | 8.92 | – | – | – | –
5 | CC(=O)c1c(C)c2cnc(Nc3ccc(N4CCN(CCC(=O)NCCCCCCNC(=O)CCl)CC4)cn3)nc2n(C2CCCC2)c1=O | > 20 | > 20 | > 20 | > 20 | – | – | – | –
6 | CC(=O)c1c(C)c2cnc(Nc3ccc(N4CCN(CCC(=O)NCCNCC#N)CC4)cn3)nc2n(C2CCCC2)c1=O | > 20 | > 20 | > 20 | > 20 | – | – | – | –
7 | CC(=O)c1c(C)c2cnc(Nc3ccc(N4CCN(CC(=O)NCCNC(=O)CCl)CC4)cn3)nc2n(C2CCCC2)c1=O | 7.6 | 2.39 | > 20 | 10.2 | 104 | 60.8 | 81.6 | 93.4
8 | C=CC(=O)NCCCCNC(=O)CN1CCN(c2ccc(Nc3ncc4c(C)c(C(C)=O)c(=O)n(C5CCCC5)c4n3)nc2)CC1 | > 20 | > 20 | > 20 | > 20 | – | – | – | –
9 | CC(=O)c1c(C)c2cnc(Nc3ccc(N4CCN(CCC(=O)NCCOCCNC(=O)CCl)CC4)cn3)nc2n(C2CCCC2)c1=O | 6.11 | 11.5 | > 20 | > 20 | 103 | 60.5 | 91.2 | 94.4
10 | CC(=O)c1c(C)c2cnc(Nc3ccc(N4CCN(CC#N)CC4)cn3)nc2n(C2CCCC2)c1=O | > 20 | > 20 | > 20 | 17.9 | – | – | – | –
11 | CC(=O)c1c(C)c2cnc(Nc3ccc(N4CCN(CCC(=O)NCCNC(=O)CCl)CC4)cn3)nc2n(C2CCCC2)c1=O | > 20 | > 20 | > 20 | > 20 | – | – | – | –
12 | CC(=O)c1c(C)c2cnc(Nc3ccc(N4CCN(CC(=O)NCCNCC#N)CC4)cn3)nc2n(C2CCCC2)c1=O | 9.89 | > 20 | > 20 | > 20 | – | – | – | –
13 | C=CC(=O)NCCCNC(=O)CCN1CCN(c2ccc(Nc3ncc4c(C)c(C(C)=O)c(=O)n(C5CCCC5)c4n3)nc2)CC1 | > 20 | > 20 | > 20 | 18.3 | – | – | – | –
14 | C=CC(=O)NCCCNC(=O)CN1CCN(c2ccc(Nc3ncc4c(C)c(C(C)=O)c(=O)n(C5CCCC5)c4n3)nc2)CC1 | > 20 | > 20 | > 20 | 18 | – | – | – | –
15 | CC(=O)c1c(C)c2cnc(Nc3ccc(N4CCN(CC(=O)NCCCCCCNCC#N)CC4)cn3)nc2n(C2CCCC2)c1=O | > 20 | > 20 | > 20 | > 20 | – | – | – | –
16 | CC(=O)c1c(C)c2cnc(Nc3ccc(N4CCN(C(C)=O)CC4)cn3)nc2n(C2CCCC2)c1=O | > 50 | > 50 | > 50 | > 50 | 100 | 43.2 | 68.5 | 87.8
17 | C=CC(=O)N1CCN(c2ccc(Nc3ncc4c(C)c(C(C)=O)c(=O)n(C5CCCC5)c4n3)nc2)CC1 | 6.96 | > 20 | 8.5 | > 20 | – | – | – | –
18 | CC(=O)c1c(C)c2cnc(Nc3ccc(N4CCN(CC(=O)NCCCNCC#N)CC4)cn3)nc2n(C2CCCC2)c1=O | 15.5 | > 20 | 19.2 | > 20 | – | – | – | –
19 | CC(=O)c1c(C)c2cnc(Nc3ccc(N4CCN(CC(=O)NCCCCNCC#N)CC4)cn3)nc2n(C2CCCC2)c1=O | > 20 | > 20 | > 20 | > 20 | – | – | – | –
20 | C=CC(=O)NCCNC(=O)CN1CCN(c2ccc(Nc3ncc4c(C)c(C(C)=O)c(=O)n(C5CCCC5)c4n3)nc2)CC1 | > 20 | > 20 | > 20 | 18.7 | – | – | – | –
